The target in series [1] is T1, BRD9 bromodomain (BRD9-BD) (Homo sapiens, UniProt Q9H8M2).
T1 construct: the bromodomain (residues 134–239) for BRD9 (Q9H8M2); His6 (cleaved yes); made in house; host or cells: Escherichia coli BL21(DE3)
T1 sequence (Q9H8M2 134-239): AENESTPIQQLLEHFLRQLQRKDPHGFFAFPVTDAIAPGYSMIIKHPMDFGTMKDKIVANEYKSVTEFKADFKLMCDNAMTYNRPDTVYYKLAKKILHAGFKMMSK
In words: ITC, BRD9-BD titrated into PROTAC (binary). It counts as binding. The conditions noted are these: 25 °C.

For series [2], the target named is T2, VCB in the presence of BRD9-BD (Homo sapiens, UniProt P40337+Q9H8M2).
T2 construct: the bromodomain (residues 134–239) for BRD9 (Q9H8M2); His6 (cleaved yes); made in house; host or cells: Escherichia coli BL21(DE3)
The series can be described thus: Fluorescence polarization, displacement of FAM-labeled HIF-1α peptide in the presence of BRD9-BD (ternary). It counts as binding. Conditions: binary versus ternary.

The target in series [3] is T3, VCB:PROTAC:BRD9-BD ternary complex (Homo sapiens, UniProt P40337+Q9H8M2).
T3 construct: the bromodomain (residues 134–239) for BRD9 (Q9H8M2); made in house; host or cells: Escherichia coli BL21(DE3)
The series can be described thus: AlphaLISA proximity assay of ternary complex formation. It counts as binding. The conditions noted are these: for AlphaLISA max intensity: biotinylated VCB 100 nM, His6-BRD9-bromodomain 100 nM. The method, then:
All assays were performed at room temperature in 384-well plates with a final assay volume of 25 μL per well, as described previously.[5] All reagents were prepared as 5× stocks diluted in 50 mM HEPES, pH 7.5, 100 mM NaCl, 0.1% (w/v) bovine serum albumin, and 0.02% (w/v) 3-[(cholamidopropyl)dimethylammonio]-1-propanesulfonate (CHAPS). Plates were sealed by transparent film and briefly centrifuged at 100g between additions of reagents. Biotinylated VCB (100 nM final) and His6-BRD9-bromodomain (100 nM final) were incubated with a range of PROTAC concentrations (0.5–2000 nM; two-in-one serial dilution) for 1 h. Streptavidin-coated donor beads and nickel chelate acceptor beads (PerkinElmer) were added to a final concentration of 10 μg mL^–1, and plates were incubated for another hour. Plates were read on a PHERAstar FS (BMG Labtech) using an optic module with an excitation wavelength of 680 nm and emission wavelength of 615 nm. Intensity values were plotted against PROTAC concentration on a log10 scale using GraphPad Prism, version 7. To obtain biotinylated-VCB, protein was mixed with EZ-link NHS-PEG4-biotin (Thermo Scientific) in a 1:1 molar ratio and incubated at room temperature for 1 h. The reaction was quenched using 1 M Tris-HCl, pH 7.5, and unreacted NHS-biotin was removed with a PD-10 MiniTrap desalting column (GE Healthcare) equilibrated with 20 mM HEPES, pH 7.5, 150 mM NaCl, and 1 mM DTT.

Series [4] can be described thus: Parallel Artificial Membrane Permeability Assay (PAMPA). It counts as in vitro ADME. Conditions: for recovery at 5 h, 10 µM / PAMPA pH 7.4 HIGH/MED/LOW: pH 7.4; for PAMPA pH 7.4 HIGH/MED/LOW: permeability class. The method, then: Test compound (10 µM) was incubated in pre-warmed plasma at 37 ᵒC (that is buffered to pH 7.4 in ratio of 70:30 plasma to buffer). Immediately, at time zero, then at 30, 60, 120, and 180 min, a 50 µL aliquot of the incubation mixture was removed and mixed with 200 µL acetonitrile containing Donepezil as the internal standard (50 ng/ml) to stop the reaction. The samples were centrifuged to sediment the precipitated protein and the plates then sealed prior to UPLC-MS/MS analysis using a Xevo TQ-S Micro (Waters Corporation, USA).
XLfit (IDBS, UK) was used to calculate the exponential decay and consequently the rate constant (k) from the ratio of peak area of test compound to internal standard at each time point. The half-life was calculated for each test compound from the rate by using the […]
Parallel Artificial Membrane Permeability Assay (PAMPA)
PAMPA was performed using a 96-well pre-coated BD Gentest™ PAMPA plate (BD Biosciences, U.K.). Each well was divided into two chambers; donor and acceptor, separated by a lipid-oil-lipid tri-layer constructed in a porous filter. The effective permeability, Pe, of the compound was measured at pH 7.4. Stock solutions (5 mM) of the compound were prepared in DMSO. The compound was then further diluted to 10 µM in phosphate buffered […]
saline at pH 7.4. […] The compound […]
dissolved in phosphate buffered saline was then added to the donor side of the membrane and phosphate buffered saline without compound was added to the acceptor side. The PAMPA plate was left at room temperature for 5 h. After which time, an aliquot (100 µL) was then […]
removed from both acceptor and donor compartments and mixed with acetonitrile (80 µL) containing an internal standard. The samples were centrifuged (10 min, 5 °C, 3270 g) to sediment precipitated protein and sealed prior to UPLC-MS/MS analysis using a Xevo TQ-S Micro (Waters Corp, USA). Pe was calculated as shown in the below equation: […]
CA(t) = peak area of compound present in acceptor well at time t = 18000 s Cequi = [CD(t) x VD + CA(t) x VA] / (VD + VA)
VA = acceptor well volume
CD(t) = peak area of compound present in donor well at time t = 18000 s Recovery of compound from donor and acceptor wells was calculated and data was only accepted when recovery exceeded 70%.
Using a fast gradient, reverse-phase HPLC method to determine the chromatographic hydrophobicity index (CHI) was determined as described by Camurri and Zaramella (ref. 3) and Valko et al. (ref. 4). Briefly, by plotting the retention time of a set of reference

Structures are written as SMILES.

T2 sequence (P40337 54-213 limits assumed, one chain of several): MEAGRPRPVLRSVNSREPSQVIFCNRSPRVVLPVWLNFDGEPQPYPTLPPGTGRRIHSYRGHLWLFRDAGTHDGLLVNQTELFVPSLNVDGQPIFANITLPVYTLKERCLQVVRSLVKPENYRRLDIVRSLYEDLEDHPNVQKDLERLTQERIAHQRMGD
T2 sequence (Q15369 17-112 partner limits assumed, one chain of several): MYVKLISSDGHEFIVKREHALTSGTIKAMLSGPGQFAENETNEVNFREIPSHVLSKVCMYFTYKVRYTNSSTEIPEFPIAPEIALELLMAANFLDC
T2 sequence (Q15370 1-104 partner limits assumed, one chain of several): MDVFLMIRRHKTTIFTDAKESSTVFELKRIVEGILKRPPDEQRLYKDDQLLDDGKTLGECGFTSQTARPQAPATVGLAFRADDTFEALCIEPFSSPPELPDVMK
T3 sequence (P40337 54-213 limits assumed, one chain of several): as the sequence (P40337 54-213 limits assumed, one chain of several) above
T3 sequence (Q15369 17-112 partner limits assumed, one chain of several): as the sequence (Q15369 17-112 partner limits assumed, one chain of several) above
T3 sequence (Q15370 1-104 partner limits assumed, one chain of several): as the sequence (Q15370 1-104 partner limits assumed, one chain of several) above

`COc1cc(-c2cn(C)c(=O)c3cnccc23)cc(OC)c1CN1CCN(CCOCCOCC(=O)N[C@H](C(=O)N2C[C@H](O)C[C@H]2C(=O)NCc2ccc(-c3scnc3C)cc2)C(C)(C)C)CC1` [Compound 5, (2S,4R)-1-((S)-2-(2-(2-(2-(4-(2,6-Dimethoxy-4-(2-methyl-1-oxo-1,2-dihydro-2,7-naphthyridin-4-yl)benzyl)piperazin-1-yl)ethoxy)ethoxy)acetamido)-3,3-dimethylbutanoyl)-4-hydroxy-N-(4-(4-methylthiazol-5-yl)benzyl)pyrrolidine-2-carboxamide]: in series [1], the “N (stoichiometry), BRD9-BD into PROTAC” value is 0.753 ± 0.004 and the “ΔG, BRD9-BD into PROTAC” value is “–10.7 ± 0.1 kcal/mol”. Moreover, in series [2], the “cooperativity α (FP)” value amounted to 0.24. Also, in series [3], the AlphaLISA max intensity was 1.0 × 10^6.
With `COc1cc(-c2cn(C)c(=O)c3cnccc23)cc(OC)c1CN1CCN(CCOCCOCCOc2cc(-c3scnc3C)ccc2CNC(=O)[C@@H]2C[C@@H](O)CN2C(=O)[C@@H](NC(=O)C2(F)CC2)C(C)(C)C)CC1` [Compound 26, (2S,4R)-N-(2-(2-(2-(2-(4-(2,6-Dimethoxy-4-(2-methyl-1-oxo-1,2-dihydro-2,7-naphthyridin-4-yl)benzyl)piperazin-1-yl)ethoxy)ethoxy)ethoxy)-4-(4-methylthiazol-5-yl)benzyl)-1-((S)-2-(1-fluorocyclopropane-1-carboxamido)-3,3-dimethylbutanoyl)-4-hydroxypyrrolidine-2-carboxamide], in series [1], the “N (stoichiometry), BRD9-BD into PROTAC” value is on record as 1.00; the “ΔG, BRD9-BD into PROTAC” value is reported as “–11.0 ± 0.1 kcal/mol”; the “ΔH, BRD9-BD into PROTAC” value is “–11.4 ± 0.1 kcal/mol”; the “–TΔS, BRD9-BD into PROTAC” value worked out at 0.44 ± 0.05 kcal/mol. In addition, the “cooperativity α (FP)” value in series [2] was determined as 1.17. The recovery at 5 h, 10 µM in series [4] (PAMPA) stood at 94%. For the same compound, the “PAMPA pH 7.4 Pe” value in series [4] (pH 7.4, 5 h) was found to be 0.01 nm/s. Besides, the “PAMPA pH 7.4 HIGH/MED/LOW” value in series [4] was “LOW and low cell permeability”. Moreover, the “increase in the maximum α intensity compared to VCB:5:BRD9-BD” value in series [3] (AlphaLISA) stood at 50%. Further, the AlphaLISA max intensity in series [3] is on record as 1.56 × 10^6.
Take `COc1cc(-c2cn(C)c(=O)c3cnccc23)cc(OC)c1CN1CCN(CCCCCOc2cc(-c3scnc3C)ccc2CNC(=O)[C@@H]2C[C@@H](O)CN2C(=O)[C@@H](NC(=O)C2(F)CC2)C(C)(C)C)CC1` [Compound 51, (2S,4R)-N-(2-((5-(4-(2,6-Dimethoxy-4-(2-methyl-1-oxo-1,2-dihydro-2,7-naphthyridin-4-yl)benzyl)piperazin-1-yl)pentyl)oxy)-4-(4-methylthiazol-5-yl)benzyl)-1-((S)-2-(1-fluorocyclopropane-1-carboxamido)-3,3-dimethylbutanoyl)-4-hydroxypyrrolidine-2-carboxamide]: in series [1], the “N (stoichiometry), BRD9-BD into PROTAC” value was found to be 0.77; the “ΔG, BRD9-BD into PROTAC” value was “–11.35 ± 0.05 kcal/mol”; the “ΔH, BRD9-BD into PROTAC” value is reported as “–12.8 ± 0.1 kcal/mol”. In series [2], the “cooperativity α (FP)” value was determined as 1.00. The “PAMPA pH 7.4 Pe” value in series [4] (pH 7.4, 5 h) is on record as 0.01 nm/s. Besides, the “PAMPA pH 7.4 HIGH/MED/LOW” value in series [4] (listed as VZ185) was “LOW and low cell permeability”. Moreover, in series [3], the AlphaLISA max intensity was 1.47 × 10^6.
Take `COc1cc(-c2cn(C)c(=O)c3cnccc23)cc(OC)c1CN1CCN(CCCCCOc2cc(-c3scnc3C)ccc2CNC(=O)[C@@H]2C[C@H](O)CN2C(=O)[C@@H](NC(=O)C2(F)CC2)C(C)(C)C)CC1` [cisVZ185]: the recovery at 5 h, 10 µM in series [4] (PAMPA) was 87%. Also, in series [4] (PAMPA, pH 7.4, 5 h, read-out: PAMPA pH 7.4 Pe), the Papp at 5 h, 10 µM was determined as 0.036 ×10⁻⁶ cm/s. In series [4], the “PAMPA pH 7.4 HIGH/MED/LOW” value is “LOW”.

(Values after paper PMC6348446 (Journal of Medicinal Chemistry, 2018).)
